Measured values taken from patent US8829006B2, “Compounds” (Boehringer Ingelheim International GmbH, priority 2007, dated 2014).

The molecules below were run against T1, human CGRP receptor (Homo sapiens, UniProt O60894+Q16602) (assay: Binding studies with SK-N-MC cells (expressing the human CGRP receptor)). Settings: SK-N-MC membranes, 50 pM 125I-iodotyrosyl-CGRP, 180 minutes at ambient temperature.
T1 construct: SK-N-MC membranes (˜20 μg protein) are incubated for 180 minutes at ambient temperature; endogenous in cells; host or cells: SK-N-MC cells (membranes)
Experimental: A. Binding Studies with SK-N-MC Cells (Expressing the Human CGRP Receptor)
SK-N-MC membranes (˜20 μg protein) are incubated for 180 minutes at ambient temperature with 50 pM ^125I-iodotyrosyl-Calcitonin-Gene-Related Peptide and increasing concentrations of the test substances in a total volume of 250 μl (assay buffer: 10 mM tris, 50 mM NaCl, 5 mM MgCl2, 1 mM EDTA, pH=7.4). The incubation is ended by rapid filtration through GF/B-glass fibre filters treated with polyethyleneimine (0.1%) using a cell harvester. The protein-bound radioactivity is measured using a gamma counter. Non-specific binding is defined as the bound radioactivity after the presence of 1 μM BIBN4096BS during incubation.
The concentration binding curves are analysed using computer-aided non-linear curve fitting.

T1 sequence (Q16602 23-461): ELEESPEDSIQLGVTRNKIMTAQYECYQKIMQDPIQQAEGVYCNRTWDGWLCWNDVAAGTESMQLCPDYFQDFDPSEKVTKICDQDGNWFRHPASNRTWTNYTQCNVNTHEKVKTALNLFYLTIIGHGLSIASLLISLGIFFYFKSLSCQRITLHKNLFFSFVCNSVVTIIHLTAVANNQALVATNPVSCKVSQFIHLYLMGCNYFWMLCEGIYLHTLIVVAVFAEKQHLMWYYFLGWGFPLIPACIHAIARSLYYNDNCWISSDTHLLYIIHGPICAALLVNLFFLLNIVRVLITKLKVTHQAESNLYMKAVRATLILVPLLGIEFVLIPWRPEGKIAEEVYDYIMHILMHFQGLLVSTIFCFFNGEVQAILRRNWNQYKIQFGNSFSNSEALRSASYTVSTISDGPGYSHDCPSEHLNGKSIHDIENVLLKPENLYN
T1 sequence (O60894 27-148): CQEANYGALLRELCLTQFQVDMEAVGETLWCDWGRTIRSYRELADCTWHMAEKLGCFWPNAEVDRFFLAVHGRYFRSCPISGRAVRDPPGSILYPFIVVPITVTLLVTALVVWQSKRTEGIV

SMILES | Ki
COc1ccc2c(c1)CCN(C1CCN(c3cc(C(=O)N4Cc5cn[nH]c5C(C)(C)C4)ncn3)CC1)C(=O)N2 [(8)] | 0.004 µM
O=C(c1cc(N2CCC(n3c(=O)[nH]c4ncccc43)CC2)ncn1)N1CCC2CCCCC21 (stereo not drawn) [(11)] | 0.034 µM
O=C(c1cc(N2CCC(n3nc(-c4ccccc4)[nH]c3=O)CC2)ncn1)N1CCc2ccccc21 [(15)] | 0.021 µM
O=C(c1cc(N2CCC(n3c(=O)[nH]c4ncccc43)CC2)ncn1)N1Cc2ccccc2C1 [(17)] | 0.117 µM
O=C(c1cc(N2CCC(n3c(=O)[nH]c4ncccc43)CC2)ncn1)N1CCc2cc(F)ccc21 [(36)] | 0.005 µM
CC1(C)CN(C(=O)c2cc(N3CCC(n4c(=O)[nH]c5ncccc54)CC3)ncn2)c2ccc(F)cc21 [(37)] | 0.002 µM
O=C(c1cc(N2CCC(n3c(=O)[nH]c4ncccc43)CC2)ncn1)N1CC(CCCN2CCCC2)c2ccccc21 (stereo not drawn) [(41)] | 0.021 µM
CC1(C)CCN(C(=O)c2cc(N3CCC(n4c(=O)[nH]c5ncccc54)CC3)ncn2)C1 [(50)] | 0.69 µM
CC1(C)CN(C(=O)c2cc(N3CCC(n4c(=O)[nH]c5ncccc54)CC3)ncn2)Cc2ccccc21 [(55)] | 0.003 µM
